Reference: patent US20140235533A1, “DIHYDROFURAN DERIVATIVES AS INSECTICIDAL COMPOUNDS” (SYNGENTA PARTICIPATIONS AG, priority 2011, published 2014)

How the values were obtained:
Type in all cases: in vivo
Heliothis virescens = Heliothis virescens (tobacco budworm) egg test on artificial diet; conditions: 96 h, 200 ppm (concentration in well 18 ppm), eggs 0-24 h old on artificial diet, egg mortality, larval mortality, growth regulation after 4 days
Method: Heliothis virescens (Tobacco Budworm):
Eggs (0-24 h old) were placed in 24-well microtiter plate on artificial diet and treated with test solutions at an application rate of 200 ppm (concentration in well 18 ppm) by pipetting. After an incubation period of 4 days, samples were checked for egg mortality, larval mortality, and growth regulation. The following compound gave at least 80% control of Heliothis virescens: A1, A2, A03, A05, A06, A07, A08, A09, A10, A11, A12, A13, A14, A15, A16, A17, A18, A19, A20, A21, A22, A25, A26, A27, A31, A32, A34, A37, A39, A40, A42, A44, A45, A46, A47, A48, A49, A50, A51, A52, A53, B1**.

Spodoptera littoralis = Spodoptera littoralis (Egyptian cotton leafworm) cotton leaf disc spray test; conditions: foliar, 72 h, 200 ppm spray on cotton leaf discs, 5 L1 larvae, mortality, feeding behavior, growth regulation 3 days after treatment
Excerpt: Spodoptera littoralis (Egyptian Cotton Leafworm) Cotton leaf discs were placed on agar in a 24-well microtiter plate and sprayed with test solutions at an application rate of 200 ppm. After drying, the leaf discs were infested with 5 L1 larvae. The samples were checked for mortality, feeding behavior, and growth regulation 3 days after treatment (DAT).

Diabrotica balteata = Diabrotica balteata (corn root worm) artificial diet MTP test; conditions: 120 h, 200 ppm (concentration in well 18 ppm), L2 larvae, larval mortality and growth regulation after 5 days
Method: Diabrotica balteata (Corn Root Worm): A 24-well microtiter plate (MTP) with artificial diet was treated with test solutions at an application rate of 200 ppm (concentration in well 18 ppm) by pipetting. After drying, the MTPs were infested with L2 larvae (6-10 per well). After an incubation period of 5 days, samples were checked for larval mortality and growth regulation.

Plutella xylostella = Plutella xylostella (diamond back moth) artificial diet MTP test; conditions: 144 h, 200 ppm (concentration in well 18 ppm), L2 larvae, larval mortality and growth regulation after 6 days
Method: Plutella xylostella (Diamond Back Moth): 24-well microtiter plate (MTP) with artificial diet was treated with test solutions at an application rate of 200 ppm (concentration in well 18 ppm) by pipetting. After drying, the MTPs were infested with L2 larvae (7-12 per well). After an incubation period of 6 days, samples were checked for larval mortality and growth regulation.

Tetranychus urticae = Tetranychus urticae (two-spotted spider mite) bean leaf disc spray test; conditions: foliar, 192 h, 200 ppm spray on bean leaf discs, mite populations of mixed ages, egg, larval and adult mortality 8 days later
Excerpt: Tetranychus urticae (Two-Spotted Spider Mite): Bean leaf discs on agar in 24-well microtiter plates were sprayed with test solutions at an application rate of 200 ppm. After drying, the leaf discs are infested with mite populations of mixed ages. 8 days later, discs are checked for egg mortality, larval mortality, and adult mortality.

Measured: pest or weed control at 200 ppm

CCC(=O)NCc1ccc(C2=COC(c3cc(Cl)cc(Cl)c3)(C(F)(F)F)C2)cc1Cl (stereo not drawn) [Compound A05, N-[[2-chloro-4-[2-(3,5-dichlorophenyl)-2-(trifluoromethyl)-3H-furan-4-yl]phenyl]methyl]propanamide]
≥ 80%: all assays above

O=C(NCc1ccc(C2=COC(c3cc(Cl)cc(Cl)c3)(C(F)(F)F)C2)cc1Cl)C1CCCO1 (stereo not drawn) [Compound A07, N-[[2-chloro-4-[2-(3,5-dichlorophenyl)-2-(trifluoromethyl)-3H-furan-4-yl]phenyl]methyl]tetrahydrofuran-2-carboxamide]
≥ 80%: all assays above

C/N=C1/SC(CC(=O)NCc2ccc(C3=COC(c4cc(Cl)cc(Cl)c4)(C(F)(F)F)C3)cc2Cl)C(=O)N1C (stereo not drawn) [Compound A15, N-[[2-chloro-4-[2-(3,5-dichlorophenyl)-2-(trifluoromethyl)-3H-furan-4-yl]phenyl]methyl]-2-[(2E)-3-methyl-2-methylimino-4-oxo-thiazolidin-5-yl]acetamide]
≥ 80%: all assays above

CC(C)C(=O)NCc1ccc(C2=COC(c3cc(Cl)cc(Cl)c3)(C(F)(F)F)C2)cc1Cl (stereo not drawn) [Compound A46, N-[[2-chloro-4-[2-(3,5-dichlorophenyl)-2-(trifluoromethyl)-3H-furan-4-yl]phenyl]methyl]-2-methyl-propanamide]
≥ 80%: all assays above

O=C(CC(F)(F)F)NCc1ccc(C2=COC(c3cc(Cl)cc(Cl)c3)(C(F)(F)F)C2)cc1Cl (stereo not drawn) [Compound A48, N-[[2-chloro-4-[2-(3,5-dichlorophenyl)-2-(trifluoromethyl)-3H-furan-4-yl]phenyl]methyl]-3,3,3-trifluoro-propanamide]
≥ 80%: all assays above

CS(=O)(=O)CC(=O)NCc1ccc(C2=COC(c3cc(Cl)cc(Cl)c3)(C(F)(F)F)C2)cc1Cl (stereo not drawn) [Compound A51, N-[[2-chloro-4-[2-(3,5-dichlorophenyl)-2-(trifluoromethyl)-3H-furan-4-yl]phenyl]methyl]-2-methylsulfonyl-acetamide]
≥ 80%: all assays above
